Values of other authors as cited in US20150272920A1, “METHOD FOR TREATING OBESITY WITH ANTI-OBESITY FORMULATIONS AND OMEGA 3 FATTY ACIDS FOR THE REDUCTION OF BODY WEIGHT IN CARDIOVASCULAR DISEASE PATIENTS (CVD) AND DIABETICS” (PIVOTAL THERAPEUTICS INC., priority 2014, published 2015).

Biological target: CB1R (Homo sapiens, UniProt P21554)
Conditions: in vivo

Sequence of CB1R (P21554 whole entry): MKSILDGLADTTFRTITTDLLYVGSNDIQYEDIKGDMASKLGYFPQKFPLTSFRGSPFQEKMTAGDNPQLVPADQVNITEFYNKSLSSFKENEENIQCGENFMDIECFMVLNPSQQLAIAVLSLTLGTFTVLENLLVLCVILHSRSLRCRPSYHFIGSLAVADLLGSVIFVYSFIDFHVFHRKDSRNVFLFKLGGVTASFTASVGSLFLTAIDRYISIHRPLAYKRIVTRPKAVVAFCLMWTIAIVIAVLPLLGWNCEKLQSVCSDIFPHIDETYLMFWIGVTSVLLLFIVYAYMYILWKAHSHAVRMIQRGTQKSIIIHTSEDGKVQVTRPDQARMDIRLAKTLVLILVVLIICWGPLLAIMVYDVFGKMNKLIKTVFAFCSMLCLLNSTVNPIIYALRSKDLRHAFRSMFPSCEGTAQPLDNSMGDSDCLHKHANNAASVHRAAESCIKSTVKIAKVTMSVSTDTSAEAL

CCNC1(C(N)=O)CCN(c2ncnc3c2nc(-c2ccccc2Cl)n3-c2ccc(Cl)cc2)CC1.Cl [CP-945,598]
Reason for failure of phase III clinical trials (adverse reactions): psychiatric adverse reactions, including severe depression and anxiety
